Source: US8815233B2, “Method for treating pervasive development disorders” (Curemark LLC, priority 1999, dated 2014)

Key:
[1] = tested on: autistic children; assay: Fecal Chymotrypsin Test after secretin infusion in autistic children; assay type: in vivo, human
Method: In this experiment, 16 children diagnosed as having autism were administered the following Fecal Chymotrypsin Test in accordance with an embodiment of the invention. First, approximately 2 grams of stool were collected from each child and placed in a sterile container (although it is to be understood that any quantity of stool may be collected, as 2 grams of stool is not a required amount). Each stool sample was then analyzed using, e.g., an enzymatic photospectrometry analysis as is known by those skilled in the art, to determine the level of fecal chymotrypsin in the stool. Although the enzymatic photospectrophotometry process is preferred, any suitable conventional method may be used for measuring the fecal chymotrypsin levels. The measured chymotrypsin levels of the 16 autistic children are illustrated in FIG. 13.
After determining the chymotrypsin levels of the stools, each of these levels were compared with threshold chymotrypsin levels to determine if the child was likely to benefit from secretin administration. By way of example, with the fecal chymotrypsin tests of the stool samples being performed at 30° C., normal levels of chymotrypsin are deemed to lie above 8.4 U/gram, whereas pathologically abnormal levels are deemed to lie below 4.2 U/gram. In addition, chymotrypsin levels between 8.4 U/gram and 4.2 U/gram are considered equivocal, and further testing of the individual's fecal chymotrypsin levels over a period of time should be performed.
(§1) For each of the 16 autistic children tested, a preferred secretin infusion process according to the present invention was performed involving the administering of 1 U/kg of body weight of Secretin-Ferring for a period of nine months at intervals of approximately 6 weeks. In addition, another CARS test was administered to each of the 16 autistic children 3 weeks post secretin administration to determine if their autism had changed post infusion.
A preferred secretin infusion process includes the initial step of prepping an arm of the candidate child with an IV injection of saline. A test dose of 1 U of Secretin-Ferring is then administered to the child. Approximately one minute after infusion, the child is examined for signs of allergic reaction including rash, increased heart rate, and increase of blood pressure. […] Subsequently, each child receives a 1 U/kg of body weight infusion of Secretin-Ferring approximately every 6 weeks for 9 months. […]
In this experiment, 37 autistic children with abnormal fecal chymotrypsin levels were administered secretin over the course of 6 months using the secretin infusion process described above. Their fecal chymotrypsin (FC) levels were measured weekly using the fecal chymotrypsin test described above.

[2] = tested on: autistic children; assay: CARS (Childhood Autism Rating Scale) test pre/post secretin in autistic children; assay type: in vivo, human; conditions: 16 autistic children
Method: Upon determining that a given child was likely to benefit from secretin administration based on the results of the fecal chymotrypsin test, the child was administered a CARS (Childhood Autism Rating Scale) test prior to being scheduled for secretin infusion.
as §1
A preferred secretin infusion process includes the initial step of prepping an arm of the candidate child with an IV injection of saline. A test dose of 1 U of Secretin-Ferring is then administered to the child. Approximately one minute after infusion, the child is examined for signs of allergic reaction including rash, increased heart rate, and increase of blood pressure. […] Subsequently, each child receives a 1 U/kg of body weight infusion of Secretin-Ferring approximately every 6 weeks for 9 months. It is to be understood that any commercially available form of secretin may be used.

[3] = tested on: children diagnosed with Autism; conditions: Horvath et al. 1998; secretin given as diagnostic procedure during upper gastrointestinal endoscopy; cited from earlier work

secretin
fecal chymotrypsin level post-secretin administration ([1]; each of 16 autistic children, approx. one week after first infusion, 1 U/kg IV Secretin-Ferring, vs pre-secretin (all abnormal)): increased
# Autistic Children w/Equivocal FC levels ([1]; of 37 children, 6 months post-secretin, pre-secretin 0, equivocal 4.2-8.4 U/gram): 2
# Autistic Children w/normal FC levels ([1]; of 37 children, 6 months post-secretin, pre-secretin 0, normal above 8.4 U/gram): 34
# Autistic Children w/Abnormal FC levels ([1]; of 37 children, 6 months post-secretin, pre-secretin 37, abnormal below 4.2 U/gram): 1
CARS component scores (except fear) ([2]; 3 weeks post secretin infusion): improvement
CARS fear component score ([2]; 3 weeks post secretin infusion): increased
CARS scores (overall) ([2]; approx. 3 weeks after first secretin administration, 1 U/kg IV, vs pre-secretin): overall decrease
symptoms associated with Autism after secretin administration [3]: ameliorating the symptoms associated with Autism
